According to ChEMBL document CHEMBL5543174, “A Nonbactericidal Anionic Antimicrobial Peptide Provides Prophylactic and Therapeutic Efficacies against Bacterial Infections in Mice by Immunomodulatory-Antithrombotic Duality” (J Med Chem, 2024):
The source made the active and inactive calls. The rule behind the calls is not given here.

Legend:
Enterococcus faecalis = test: Antimicrobial activity against Enterococcus faecalis ATCC 29212 assessed as inhibition of microbial growth at <= 200 ug/ml incubated for 18 hrs by micro-broth dilution method; format: functional, organism-based; settings: dose <= 200.0 µg/ml
Bacillus subtilis = test: Antimicrobial activity against Bacillus subtilis ATCC6633 assessed as inhibition of microbial growth at <= 200 ug/ml incubated for 18 hrs by micro-broth dilution method; format: functional, organism-based; settings: dose <= 200.0 µg/ml
Staphylococcus aureus [1] = test: Antimicrobial activity against Staphylococcus aureus ATCC 25923 assessed as reduction in metabolic activity at < 200 ug/ml incubated for 1 to 4 hrs by CCK-8 assay; format: functional, organism-based; settings: dose < 200.0 µg/ml, time 1-4 hrs
Candida albicans = test: Antimicrobial activity against Candida albicans ATCC 2002 assessed as reduction in metabolic activity at < 200 ug/ml incubated for 1 to 4 hrs by CCK-8 assay; format: functional, organism-based; settings: dose < 200.0 µg/ml, time 1-4 hrs
Staphylococcus aureus [2] = test: Antibacterial activity against Staphylococcus aureus ATCC 25923 infected in C57BL/6 mouse assessed as reduction in bacterial load at 10 mg/kg,ip administrated 5 hrs after bacterial infection; format: functional, organism-based
Escherichia coli [3] = test: Antibacterial activity against Escherichia coli ATCC 25922 infected in C57BL/6 mouse assessed as reduction in bacterial load at 10 mg/kg,ip administrated 5 hrs after bacterial infection; format: functional, organism-based
Staphylococcus aureus [4] = test: Antibacterial activity against Staphylococcus aureus ATCC 25923 infected in C57BL/6 mouse assessed as reduction in IL-6 level in peritoneal fluid at 10 mg/kg,ip administrated 5 hrs after bacterial infection measured after 24 hrs by ELISA; format: functional, organism-based; settings: time 19.0 hrs
Staphylococcus aureus [5] = test: Antibacterial activity against Staphylococcus aureus ATCC 25923 infected in C57BL/6 mouse assessed as reduction in IL-1beta level in peritoneal fluid at 10 mg/kg,ip administrated 5 hrs after bacterial infection measured after 24 hrs by ELISA; format: functional, organism-based; settings: time 19.0 hrs
Escherichia coli [6] = test: Antibacterial activity against Carbapenem-resistant Escherichia coli infected in C57BL/6 mouse assessed as reduction in TNF-alpha level in peritoneal fluid at 10 mg/kg,ip pre-administrated 5 hrs before bacterial infection measured after 24 hrs by ELISA; format: functional, organism-based; settings: time 29.0 hrs
Escherichia coli [7] = test: Antibacterial activity against Carbapenem-resistant Escherichia coli infected in C57BL/6 mouse assessed as reduction in IL-6 level in peritoneal fluid at 10 mg/kg,ip pre-administrated 5 hrs before bacterial infection measured after 24 hrs by ELISA; format: functional, organism-based; settings: time 29.0 hrs
Staphylococcus aureus [8] = test: Antibacterial activity against Staphylococcus aureus ATCC 25923 infected in C57BL/6 mouse assessed as reduction in IL-6 level in serum at 10 mg/kg,ip pre-administrated 5 hrs before bacterial infection measured after 24 hrs by ELISA; format: functional, organism-based; settings: time 29.0 hrs
Staphylococcus aureus [9] = test: Antibacterial activity against Methicillin-resistant Staphylococcus aureus infected in C57BL/6 mouse assessed as reduction in TNF-alpha level in serum at 10 mg/kg,ip pre-administrated 5 hrs before bacterial infection measured after 24 hrs by ELISA; format: functional, organism-based; settings: time 29.0 hrs
Escherichia coli [10] = test: Antibacterial activity against Carbapenem-resistant Escherichia coli infected in C57BL/6 mouse assessed as reduction in TNF-alpha level in serum at 10 mg/kg,ip pre-administrated 5 hrs before bacterial infection measured after 24 hrs by ELISA; format: functional, organism-based; settings: time 29.0 hrs
Escherichia coli [11] = test: Antibacterial activity against Carbapenem-resistant Escherichia coli infected in C57BL/6 mouse assessed as reduction in IL-6 level in serum at 10 mg/kg,ip pre-administrated 5 hrs before bacterial infection measured after 24 hrs by ELISA; format: functional, organism-based; settings: time 29.0 hrs
Staphylococcus aureus [12] = test: Antibacterial activity against Staphylococcus aureus ATCC 25923 infected in C57BL/6 mouse assessed as reduction in inflammatory injury in lung at 10 mg/kg,ip administrated 5 hrs after bacterial infection measured after 24 hrs by hematoxylin and eosin staining based analysis; format: functional, organism-based; settings: time 19.0 hrs
Escherichia coli [13] = test: Antibacterial activity against Carbapenem-resistant Escherichia coli infected in C57BL/6 mouse assessed as reduction in inflammatory injury in lung at 10 mg/kg,ip administrated 5 hrs after bacterial infection measured after 24 hrs by hematoxylin and eosin staining based analysis; format: functional, organism-based; settings: time 19.0 hrs
Staphylococcus aureus [14] = test: Antibacterial activity against Staphylococcus aureus ATCC 25923 infected in C57BL/6 mouse assessed as increase in survival rate at 10 mg/kg,ip pre-administrated 5 hrs before bacterial infection measured after 7 days; format: functional, organism-based; settings: time 7.0 day
Mus musculus [15] = test: Immunomodulatory activity in cyclophosphamide immunosuppressed C57BL/6 mouse with neutrophil depletion model assessed as increase in number of neutrophil in peritoneal lavage at 10 mg/kg,ip administration measured after 24 hrs by flow cytometry; format: functional, organism-based
Mus musculus [16] = test: Immunomodulatory activity in clodronate liposome immunosuppressed C57BL/6 mouse with neutrophil depletion model assessed as change in B-lymphocytes in peritoneal lavage at 10 mg/kg,ip administration measured after 5 to 24 hrs by flow cytometry; format: functional, organism-based; settings: time 5-24 hrs
Peritoneal macrophage [17] = test: Induction of chemotaxis in mouse Peritoneal macrophage assessed as increase in macrophage migration incubated for 8 hrs by crystal violet staining based indirect transwell assay; format: functional, cell-based
Peritoneal macrophage [18] = test: Induction of chemotaxis in mouse Peritoneal macrophage assessed as upregulation of CXCL2 gene expression incubated for 6 hrs by qPCR analysis; format: functional, cell-based
Peritoneal macrophage [19] = test: Induction of chemotaxis in mouse Peritoneal macrophage assessed as upregulation of CXCL1 expression incubated for 6 hrs by ELISA; format: functional, cell-based
Peritoneal macrophage [20] = test: Induction of chemotaxis in mouse Peritoneal macrophage assessed as upregulation of IL-6 expression at 25 to 100 ug/ml incubated for 6 hrs by ELISA; format: functional, cell-based; settings: dose 25-100 µg/ml
Peritoneal macrophage [21] = test: Immunomodulatory activity in mouse Peritoneal macrophage assessed as decrease in LPS-induced TNF-alpha production at 25 to 100 ug/ml incubated for 6 hrs by ELISA; format: functional, cell-based; settings: dose 25-100 µg/ml
Peritoneal macrophage [22] = test: Immunomodulatory activity in mouse Peritoneal macrophage assessed as decrease in LTA-induced IL-1beta production at 25 to 100 ug/ml incubated for 6 hrs by ELISA; format: functional, cell-based; settings: dose 25-100 µg/ml
[23] = system: Peritoneal macrophage cell; test: Induction of chemotaxis in mouse Peritoneal macrophage assessed as increase in macrophage migration at 100 ug/ml preincubated with MTS510 for 30 mins followed by compound addition measured after 8 hrs by crystal violet staining based indirect transwell assay; format: functional, cell-based; settings: dose 100.0 µg/ml
Neutrophil = test: Induction of chemotaxis in mouse bone marrow derived neutrophil assessed as increase in neutrophil migration at 100 ug/ml preincubated with PTX for 30 mins followed by compound addition measured after 8 hrs by crystal violet staining based indirect transwell assay; format: functional, cell-based; settings: dose 100.0 µg/ml
[24] = system: Peritoneal macrophage cell; test: Induction of chemotaxis in mouse Peritoneal macrophage assessed as upregulation of CXCL2 production at 100 ug/ml preincubated with KN-62 followed by compound addition by ELISA; format: functional, cell-based; settings: dose 100.0 µg/ml
Plasma = test: Anticoagulation activity in human platelet poor plasma assessed as elongation of activated partial thromboplastin time at 100 ug/ml measured after 5 mins; format: functional, cell-free; settings: dose 100.0 µg/ml
Mus musculus [25] = test: Anticoagulation activity in mouse infected with Carbapenem-resistant Escherichia coli assessed as increase in plasma APC expression at 10 mg/kg,ip administrated 5 hrs after bacterial infection measured after 24 hrs by ELISA; format: functional, organism-based; settings: time 19.0 hrs
Staphylococcus aureus [26] = test: Antibacterial activity against Methicillin-resistant Staphylococcus aureus infected in C57BL/6 mouse with cyclophosphamide-induced neutrophil depletion model assessed as reduction of bacterial burden in peritoneal cavity at 10 mg/kg,ip pre-administrated 5 hrs before bacterial infection measured after 24 hrs; format: functional, organism-based; settings: time 29.0 hrs

CC[C@H](C)[C@H](NC(=O)[C@@H]1CSSC[C@H](NC(=O)[C@H](CCC(=O)O)NC(=O)[C@@H](NC(=O)[C@H](CCCCN)NC(=O)[C@H](Cc2c[nH]cn2)NC(=O)[C@@H](NC(=O)[C@H](CCCCN)NC(=O)[C@H](CCC(=O)O)NC(=O)[C@H](C)NC(=O)[C@H](CCC(=O)O)NC(=O)[C@H](CCC(=O)O)NC(=O)[C@H](CCC(=O)O)NC(=O)[C@H](C)N)[C@@H](C)O)[C@@H](C)O)C(=O)N[C@@H](CC(C)C)C(=O)N[C@@H](CCC(=O)O)C(=O)N1)C(=O)N[C@@H](Cc1ccccc1)C(=O)N[C@H](C(=O)N[C@@H](CC(C)C)C(=O)N[C@@H](CC(C)C)C(=O)N1CCC[C@H]1C(=O)N1CCC[C@@H]1C(=O)N[C@H](C)C(=O)O)[C@@H](C)O
Activity (Enterococcus faecalis): inactive | Activity (Bacillus subtilis): inactive | Activity (Staphylococcus aureus [1]): inactive | Activity (Candida albicans): inactive | Activity (Staphylococcus aureus [2]): Active | Activity (Escherichia coli [3]): Active | Activity (Staphylococcus aureus [4]): Active | Activity (Staphylococcus aureus [5]): Active | Activity (Escherichia coli [6]): Active | Activity (Escherichia coli [7]): Active | Activity (Staphylococcus aureus [8]): Active | Activity (Staphylococcus aureus [9]): Active | Activity (Escherichia coli [10]): Active | Activity (Escherichia coli [11]): Active | Activity (Staphylococcus aureus [12]): Active | Activity (Escherichia coli [13]): Active | Activity (Staphylococcus aureus [14]): Active | Activity (Mus musculus [15]): inactive | Activity (Mus musculus [16]): inactive | Activity (Peritoneal macrophage [17]): Dose-Dependent Effect | Activity (Peritoneal macrophage [18]): Dose-Dependent Effect | Activity (Peritoneal macrophage [19]): Dose-Dependent Effect | Activity (Peritoneal macrophage [20]): inactive | Activity (Peritoneal macrophage [21]): inactive | Activity (Peritoneal macrophage [22]): inactive | Activity [23]: Active | Activity (Neutrophil): inactive | Activity [24]: Active | Activity (Plasma): inactive | Activity (Mus musculus [25]): Active | Activity (Staphylococcus aureus [26]): inactive
